From patent publication US7169414B2, “Antimicrobial agents isolated from aloe vera” (priority 1998, dated 2007)

Tested on: bacterial growth
Assay: culture killing assays of known Aloe components
Type: cell-based
Settings: purified extracts of known Aloe components
Protocol: Previously isolated and identified individual aloe products as antimicrobial products were studied to confirm that these compounds were not responsible for the anti-bacterial activity identified herein. Purified extracts of several known Aloe components were provided by Dr. I. Danhoff, including: Albarin, Awbarin, Anthraquinone, Aloin A, Aloin A & B, Aloe emodin, and Yellow sap components were tested in like assays.

Row | SMILES | inhibition of bacterial growth
1 | O=C1c2c(O)cccc2C([C@@H]2O[C@H](CO)[C@@H](O)[C@H](O)[C@H]2O)c2cc(CO)cc(O)c21 (some centres unmarked) [Aloin A] | showed any inhibition of bacterial growth
2 | O=C1c2ccccc2C(=O)c2ccccc21 [Anthraquinone] | only Aloin A and Aloe emodin showed any inhibition of bacterial growth
